How the values were obtained:
Type in all cases: cell-based
[1] = target: T1, Metabotropic glutamate receptor 5 (Homo sapiens, UniProt P41594); test: Activity at human mGluR5 expressed in CHO cells assessed as potentiation of glutamate response by FLIPR assay relative to glutamate
Target sequence in this assay (P41594 21-1212 limits assumed): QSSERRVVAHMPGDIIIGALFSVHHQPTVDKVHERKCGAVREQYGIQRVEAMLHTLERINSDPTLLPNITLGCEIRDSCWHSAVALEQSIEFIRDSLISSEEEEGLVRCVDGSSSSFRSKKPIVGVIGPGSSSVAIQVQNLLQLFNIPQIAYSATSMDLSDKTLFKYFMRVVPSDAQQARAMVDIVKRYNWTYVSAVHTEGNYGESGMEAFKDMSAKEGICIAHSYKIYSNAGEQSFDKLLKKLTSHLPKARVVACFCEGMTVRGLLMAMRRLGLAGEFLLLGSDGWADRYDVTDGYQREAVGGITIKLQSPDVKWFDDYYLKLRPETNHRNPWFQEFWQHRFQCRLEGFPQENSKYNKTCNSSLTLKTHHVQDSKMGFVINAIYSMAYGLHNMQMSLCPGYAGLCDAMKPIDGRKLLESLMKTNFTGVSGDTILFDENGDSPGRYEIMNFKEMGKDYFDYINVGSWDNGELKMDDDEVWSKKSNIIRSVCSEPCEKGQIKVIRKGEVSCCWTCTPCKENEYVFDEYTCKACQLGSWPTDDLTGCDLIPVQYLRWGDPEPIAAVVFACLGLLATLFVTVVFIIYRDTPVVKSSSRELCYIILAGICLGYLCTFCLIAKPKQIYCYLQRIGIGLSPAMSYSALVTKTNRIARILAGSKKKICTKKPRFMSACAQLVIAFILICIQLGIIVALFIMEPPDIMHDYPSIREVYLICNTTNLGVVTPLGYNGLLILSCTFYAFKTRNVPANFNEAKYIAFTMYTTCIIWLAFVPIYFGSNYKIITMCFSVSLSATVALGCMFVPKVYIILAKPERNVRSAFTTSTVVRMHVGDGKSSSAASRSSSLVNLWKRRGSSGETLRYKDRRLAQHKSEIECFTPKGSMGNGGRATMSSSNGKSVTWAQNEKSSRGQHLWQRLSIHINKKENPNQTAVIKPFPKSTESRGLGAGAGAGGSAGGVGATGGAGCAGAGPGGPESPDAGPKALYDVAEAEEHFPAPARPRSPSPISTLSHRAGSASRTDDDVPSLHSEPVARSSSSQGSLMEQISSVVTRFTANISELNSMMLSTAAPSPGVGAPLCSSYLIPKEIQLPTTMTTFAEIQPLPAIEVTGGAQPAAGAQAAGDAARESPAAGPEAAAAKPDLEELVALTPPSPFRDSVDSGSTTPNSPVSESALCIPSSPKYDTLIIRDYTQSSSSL

[2] = target: T1, Metabotropic glutamate receptor 5; test: Activity at human mGluR5 expressed in CHO cells assessed as potentiation of glutamate response by FLIPR assay
Target sequence in this assay (P41594 whole entry): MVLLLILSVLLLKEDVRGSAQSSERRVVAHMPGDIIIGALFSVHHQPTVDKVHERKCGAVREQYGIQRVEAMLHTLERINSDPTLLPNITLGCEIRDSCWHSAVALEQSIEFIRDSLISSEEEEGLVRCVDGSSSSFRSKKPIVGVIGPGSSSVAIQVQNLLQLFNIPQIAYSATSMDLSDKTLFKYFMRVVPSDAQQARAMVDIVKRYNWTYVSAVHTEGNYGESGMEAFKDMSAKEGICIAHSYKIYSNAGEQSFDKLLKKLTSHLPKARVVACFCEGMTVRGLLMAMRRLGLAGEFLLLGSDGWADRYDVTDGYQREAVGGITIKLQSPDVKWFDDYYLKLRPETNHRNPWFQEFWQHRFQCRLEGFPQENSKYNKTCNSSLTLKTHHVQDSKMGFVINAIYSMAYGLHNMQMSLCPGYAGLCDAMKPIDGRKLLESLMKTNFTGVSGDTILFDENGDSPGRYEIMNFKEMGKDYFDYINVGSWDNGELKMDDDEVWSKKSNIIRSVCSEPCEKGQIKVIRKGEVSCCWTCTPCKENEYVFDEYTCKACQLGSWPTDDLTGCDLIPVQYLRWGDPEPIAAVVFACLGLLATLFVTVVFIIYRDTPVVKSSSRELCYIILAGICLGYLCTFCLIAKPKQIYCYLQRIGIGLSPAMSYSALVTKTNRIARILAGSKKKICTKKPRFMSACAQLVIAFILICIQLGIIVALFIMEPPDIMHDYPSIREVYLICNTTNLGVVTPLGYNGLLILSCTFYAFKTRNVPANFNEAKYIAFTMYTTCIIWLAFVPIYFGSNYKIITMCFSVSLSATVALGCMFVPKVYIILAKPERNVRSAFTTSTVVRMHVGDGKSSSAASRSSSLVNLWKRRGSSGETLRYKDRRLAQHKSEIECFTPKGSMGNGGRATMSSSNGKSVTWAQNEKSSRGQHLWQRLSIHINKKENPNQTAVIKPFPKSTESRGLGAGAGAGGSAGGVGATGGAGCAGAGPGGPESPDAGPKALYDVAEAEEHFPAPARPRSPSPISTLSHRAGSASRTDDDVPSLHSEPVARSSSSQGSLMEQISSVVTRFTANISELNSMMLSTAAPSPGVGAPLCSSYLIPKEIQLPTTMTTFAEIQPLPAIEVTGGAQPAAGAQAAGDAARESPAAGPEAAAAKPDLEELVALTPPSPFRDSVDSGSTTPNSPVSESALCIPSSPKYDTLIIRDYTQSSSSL

[3] = target: Metabotropic glutamate receptor 5 (Rattus norvegicus, UniProt P31424); test: Activity at rat mGluR5 expressed in CHO cells assessed as potentiation of glutamate response by FLIPR assay
Sequence of Metabotropic glutamate receptor 5 (Rattus norvegicus, UniProt P31424) (P31424 whole entry): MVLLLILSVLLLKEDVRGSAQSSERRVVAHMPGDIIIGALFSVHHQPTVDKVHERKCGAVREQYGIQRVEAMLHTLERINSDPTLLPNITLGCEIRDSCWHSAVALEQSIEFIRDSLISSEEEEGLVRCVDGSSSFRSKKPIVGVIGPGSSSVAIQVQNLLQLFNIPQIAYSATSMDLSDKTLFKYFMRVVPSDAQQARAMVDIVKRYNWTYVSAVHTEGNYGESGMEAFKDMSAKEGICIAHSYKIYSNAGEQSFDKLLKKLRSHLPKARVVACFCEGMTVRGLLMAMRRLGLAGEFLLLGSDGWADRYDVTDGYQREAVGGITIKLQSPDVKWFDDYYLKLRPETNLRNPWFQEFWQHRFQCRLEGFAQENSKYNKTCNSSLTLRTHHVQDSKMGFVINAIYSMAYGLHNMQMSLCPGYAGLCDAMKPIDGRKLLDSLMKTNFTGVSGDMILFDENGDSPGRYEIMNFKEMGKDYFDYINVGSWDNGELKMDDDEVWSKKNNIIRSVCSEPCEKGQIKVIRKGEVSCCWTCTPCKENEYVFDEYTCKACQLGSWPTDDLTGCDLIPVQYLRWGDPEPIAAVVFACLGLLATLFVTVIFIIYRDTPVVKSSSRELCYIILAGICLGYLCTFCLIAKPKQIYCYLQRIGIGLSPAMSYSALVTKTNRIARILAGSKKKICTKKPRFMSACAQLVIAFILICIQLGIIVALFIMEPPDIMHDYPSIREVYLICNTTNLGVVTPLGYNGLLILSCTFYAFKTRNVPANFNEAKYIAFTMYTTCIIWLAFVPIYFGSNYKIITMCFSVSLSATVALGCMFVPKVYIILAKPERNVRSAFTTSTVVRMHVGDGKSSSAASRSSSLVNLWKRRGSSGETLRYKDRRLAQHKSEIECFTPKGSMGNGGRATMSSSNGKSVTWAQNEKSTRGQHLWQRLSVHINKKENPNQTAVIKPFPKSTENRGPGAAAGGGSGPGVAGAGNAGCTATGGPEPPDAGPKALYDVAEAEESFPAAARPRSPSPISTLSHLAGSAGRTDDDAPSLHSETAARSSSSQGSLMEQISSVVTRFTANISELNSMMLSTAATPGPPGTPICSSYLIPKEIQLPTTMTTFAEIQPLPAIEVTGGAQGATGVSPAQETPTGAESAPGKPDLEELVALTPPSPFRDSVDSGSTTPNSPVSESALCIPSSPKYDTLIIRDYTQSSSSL

Activity [1] | EC50 [2] [nM] | EC50 [3] [nM] | EC50 ([2]; cho) [nM] | Structure (SMILES)
3.5 | 1400 | – | – | COc1ccc(NC(=O)c2ccccn2)c(CN2C(=O)c3ccccc3C2=O)c1
6.8 | – | – | – | O=C(Nc1ccc(Cl)cc1CN1C(=O)c2ccccc2C1=O)c1ccccn1 [listing 1 of 3 here]
0.6 | > 100000 | > 1000 | – | O=C(Nc1ccc(Cl)cc1CN1C(=O)c2ccccc2C1=O)c1ccccc1
10.7 | 720 | – | – | CCOc1cccc2c1C(=O)N(Cc1cc(Br)ccc1NC(=O)c1ccccn1)C2=O
6.2 | 2300 | > 1000 | – | O=C(Nc1ccc(Cl)cc1CN1C(=O)c2ccccc2C1=O)c1ccco1
0.6 | > 100000 | – | – | COc1ccc2c(c1OC)C(=O)N(Cc1cc(Br)ccc1NC(=O)c1ccccn1)C2=O
0.9 | > 100000 | – | – | O=C(Nc1cccc(F)c1CN1C(=O)c2ccccc2C1=O)c1ccccn1
7.1 | – | – | – | O=C(Nc1ccc(Cl)cc1CN1C(=O)c2ccccc2C1=O)c1ccccc1O
4.1 | 1500 | > 1000 | – | O=C(Nc1ccc(Cl)cc1CN1C(=O)c2ccccc2C1=O)C1CCCCC1
0.6 | > 100000 | > 1000 | – | O=C(Nc1ccc(Cl)cc1CN1C(=O)c2ccccc2C1=O)c1cccnn1
3.4 | 13900 | – | – | O=C(Nc1ccccc1CN1C(=O)c2ccccc2C1=O)c1ccccn1
2.6 | 1500 | – | – | O=C(Nc1ccc(F)cc1CN1C(=O)c2ccccc2C1=O)c1ccccn1
9.2 | 1900 | > 1000 | – | O=C(Nc1ccc(Cl)cc1CN1C(=O)c2ccccc2C1=O)c1cncs1
– | 250 | – | – | O=C(Nc1ccc(Cl)cc1CN1C(=O)c2ccccc2C1=O)c1ccccn1 [listing 2 of 3 here]
11.1 | 930 | – | – | O=C(Nc1ccc(Br)cc1CN1C(=O)c2ccc(F)cc2C1=O)c1ccccn1
11.3 | 260 | > 1000 | – | O=C(Nc1ccc(Cl)cc1CN1C(=O)c2ccccc2C1=O)c1ncccc1O

Activity [1] | EC50 [2] [nM] | EC50 [3] [nM] | EC50 ([2]; cho) [nM] | Structure (SMILES)
7.6 | 750 | > 1000 | – | O=C(Nc1ccc(Br)cc1CN1C(=O)c2ccccc2C1=O)c1ccccn1
– | 4500 | – | – | O=C(CCc1cc(Cl)ccc1NC(=O)c1ccccn1)c1ccccc1
1.8 | 35000 | > 1000 | – | O=C(Nc1ccc(Cl)cc1CN1C(=O)c2ccccc2C1=O)c1cccnc1
3.7 | 2200 | – | – | Cc1ccc2c(c1C)C(=O)N(Cc1cc(Cl)ccc1NC(=O)c1ccccn1)C2=O
2.9 | 5700 | > 1000 | – | O=C(Nc1ccc(Cl)cc1CN1C(=O)c2ccccc2C1=O)c1ccccc1[N+](=O)[O-]
0.6 | > 100000 | – | – | Cc1ccc2c(c1C)C(=O)N(Cc1cc(Br)ccc1NC(=O)c1ccccn1)C2=O
1.6 | 1500 | > 1000 | – | COc1cccc(C(=O)Nc2ccc(Cl)cc2CN2C(=O)c3ccccc3C2=O)c1
4.6 | 330 | – | – | O=C(Nc1ccc(Cl)cc1CN1C(=O)c2ccc(F)cc2C1=O)c1ccccn1
5.9 | 470 | – | – | CCN(Cc1cc(Cl)ccc1NC(=O)c1ccccn1)C(=O)c1cc(Cl)cc(Cl)c1
0.6 | > 100000 | – | – | COc1ccc2c(c1OC)C(=O)N(Cc1cc(Cl)ccc1NC(=O)c1ccccn1)C2=O
0.6 | > 100000 | > 1000 | – | COc1ccccc1C(=O)Nc1ccc(Cl)cc1CN1C(=O)c2ccccc2C1=O
4.5 | 280 | – | – | CCOc1cccc2c1C(=O)N(Cc1cc(Cl)ccc1NC(=O)c1ccccn1)C2=O
8 | 1700 | – | – | O=C(/C=C/c1cc(Cl)ccc1NC(=O)c1ccccn1)c1ccccc1
– | – | – | 250 | O=C(Nc1ccc(Cl)cc1CN1C(=O)c2ccccc2C1=O)c1ccccn1 [listing 3 of 3 here]
3.5 | 5700 | > 1000 | – | O=C(Nc1ccc(Cl)cc1CN1C(=O)c2ccccc2C1=O)c1ccccc1C(F)(F)F
1.3 | 2100 | > 1000 | – | O=C(Nc1ccc(Cl)cc1CN1C(=O)c2ccccc2C1=O)c1ncccn1

— ChEMBL document CHEMBL1139092, “Challenges in the development of mGluR5 positive allosteric modulators: the discovery of CPPHA” (Bioorg Med Chem Lett, 2007)
